Experimental data published in patent US9556193B2, “Benzimidazole hexahydrofuro[3,2-b]furan derivatives” (Merck Sharp & Dohme Corp., priority 2012, dated 2017).

Columns and labels:
ob/ob and db/db mice = details: following 8 weeks of administration; cited from earlier work
[1] = target: T1, recombinant human AMPK complex 1 (containing α1β1γ1) (Homo sapiens, UniProt Q13131+Q9Y478); assay: In vitro AMPK activation assay (AMPKSAMSF), complex 1; format: biochemical; details: recombinant human AMPK complex 1 (α1β1γ1); for % Maximum AMP Activation of human AMPK Complex 1: 10-point titration expressed as % maximum AMP activation; for EC50: inflection point reflecting 50% of the maximum activation
T1 construct: made in house; host or cells: Spodoptera frugiperda Sf21 cells, baculovirus, triple infection (one virus per subunit)
T1 sequence (Q13131 whole entry): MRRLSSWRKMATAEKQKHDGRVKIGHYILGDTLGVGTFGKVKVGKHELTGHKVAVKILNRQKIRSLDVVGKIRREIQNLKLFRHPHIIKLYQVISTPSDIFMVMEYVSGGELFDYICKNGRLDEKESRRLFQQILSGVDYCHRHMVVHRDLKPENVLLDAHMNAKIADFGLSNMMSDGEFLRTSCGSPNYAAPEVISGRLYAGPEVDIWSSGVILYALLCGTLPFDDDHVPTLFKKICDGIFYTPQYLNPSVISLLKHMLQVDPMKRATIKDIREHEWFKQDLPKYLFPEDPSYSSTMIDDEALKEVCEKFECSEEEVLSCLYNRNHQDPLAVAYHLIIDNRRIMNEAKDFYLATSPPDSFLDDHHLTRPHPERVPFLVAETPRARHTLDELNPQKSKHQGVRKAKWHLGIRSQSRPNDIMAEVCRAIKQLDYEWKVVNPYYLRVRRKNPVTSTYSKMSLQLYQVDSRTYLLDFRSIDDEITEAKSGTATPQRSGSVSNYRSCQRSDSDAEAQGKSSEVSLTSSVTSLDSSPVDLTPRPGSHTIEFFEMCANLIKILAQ
T1 sequence (Q9Y478 whole entry): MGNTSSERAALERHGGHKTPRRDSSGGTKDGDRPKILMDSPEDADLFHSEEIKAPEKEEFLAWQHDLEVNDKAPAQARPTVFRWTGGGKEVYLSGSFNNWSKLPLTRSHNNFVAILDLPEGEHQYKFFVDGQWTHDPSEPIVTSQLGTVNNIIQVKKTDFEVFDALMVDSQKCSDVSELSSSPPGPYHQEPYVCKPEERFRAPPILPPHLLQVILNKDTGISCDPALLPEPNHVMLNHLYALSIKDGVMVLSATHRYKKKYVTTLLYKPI
T1 sequence (P54619 whole entry partner): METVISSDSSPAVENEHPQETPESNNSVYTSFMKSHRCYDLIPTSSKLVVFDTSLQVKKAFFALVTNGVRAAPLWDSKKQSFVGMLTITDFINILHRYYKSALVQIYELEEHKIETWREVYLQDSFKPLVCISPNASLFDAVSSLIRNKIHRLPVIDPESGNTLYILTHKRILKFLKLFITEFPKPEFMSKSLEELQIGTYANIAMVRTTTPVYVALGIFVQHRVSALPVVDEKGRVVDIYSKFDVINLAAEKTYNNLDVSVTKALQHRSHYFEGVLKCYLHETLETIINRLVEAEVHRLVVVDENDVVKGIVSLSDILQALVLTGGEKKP
Method: (§1) The recombinant human AMPK complex 1 (containing α1β1γ1) or AMPK complex 7 (containing α2β1γ1) was obtained from baculovirus expression system. Recombinant viruses were generated by cotransfection of AMPK/pBacPak9 clones with Baculogold baculovirus DNA (Pharmingen) in spodoptera frugiperda 21 cells according to the manufacturer's instructions. Each round of virus amplification was performed for 5 days in Grace's medium containing 10% serum. Virus that had been subjected to three rounds of amplification was used for all protein production procedures. To express the AMPK complex, sf21 cells were adapted to serum free medium (SF900 II, Invitrogen) by sequential dilution from serum containing stocks into SF900II medium and maintained in shaker flasks at 90 rpm at 27° C. The recombinant AMPK enzyme complex was produced by triple infection, one recombinant virus for each of the subunits, in sf21 cells under serum free conditions. Cells were infected in log phase, 1×10^6 cells/ml, at a multiplicity of infection of ˜5. Cells were harvested by centrifugation at 10,000×g for 15 minutes after 72 hours of infection with viruses. The insect cell pellet from 2 liters of culture was resuspended in 50 ml lysis buffer (20 mM Tris-HCl, 50 mM NaCl, 50 mM NaF, 30 mM Na PPi, 0.25 M sucrose, 10 mM ZnCl2, 2 mM DTT, 0.4 mg/ml digitonin) and subjected to two cycles of freeze-thaw lysis in a dry-ice ethanol bath. Insoluble material was removed by centrifugation at 10,000×g and the supernatant was fractionated with use of polyethylene glycol (PEG). The protein fraction precipitating between 2.5 and 6% PEG was used for further purification using a Blue-Sepharose step (Zhou et al, J. Clin. Invest. 108, 1167-1174, 2001).
(§2) The in vitro AMPK activation assay is performed in a volume of 30 μl in a 384-well plate. Enzyme reactions were assembled in the microtiter plate by adding 15 μl of 2× enzyme in assay buffer (20 mM HEPES, pH 7.3, 5 mM MgCl2, 3 mM DTT, 0.01% Brij 35 and CamK Kinase, to activate AMPK) to wells which contained either DMSO or compound. The reaction was initiated with the addition of 15 μl 2× substrate mixture containing 200 μM ATP, and 3.0 μM fluorescently labeled SAMS (5-FAM-HMRSAMSGLHLVKRR-COOH) in assay buffer. After 45-minute incubation at 25° C., the reaction was stopped by the addition of 70 μl stop buffer (100 mM HEPES, pH 7.3, 40 mM EDTA, 0.015% Brij 35). Phosphorylated 5-FAM SAMS product is assessed using a Caliper EZ Reader LabChip microfluidics reader. Product conversion is determined by calculating the peak heights of the substrate and product and reporting the product/(product+substrate) peak ratio. The 10-point titration data were expressed as % maximum AMP activation. The results were plotted using 4 parameter fit and the inflection point reflecting 50% of the maximum activation was reported as the EC50.

[2] = target: T2, recombinant human AMPK complex 7 (containing α2β1γ1) (Homo sapiens, UniProt P54646+Q9Y478); assay: In vitro AMPK activation assay (AMPKSAMSF), complex 7; format: biochemical; details: recombinant human AMPK complex 7 (α2β1γ1); for Emax: 10-point titration expressed as % maximum AMP activation; for EC50: inflection point reflecting 50% of the maximum activation
T2 construct: made in house; host or cells: Spodoptera frugiperda Sf21 cells, baculovirus, triple infection (one virus per subunit)
T2 sequence (P54646 whole entry): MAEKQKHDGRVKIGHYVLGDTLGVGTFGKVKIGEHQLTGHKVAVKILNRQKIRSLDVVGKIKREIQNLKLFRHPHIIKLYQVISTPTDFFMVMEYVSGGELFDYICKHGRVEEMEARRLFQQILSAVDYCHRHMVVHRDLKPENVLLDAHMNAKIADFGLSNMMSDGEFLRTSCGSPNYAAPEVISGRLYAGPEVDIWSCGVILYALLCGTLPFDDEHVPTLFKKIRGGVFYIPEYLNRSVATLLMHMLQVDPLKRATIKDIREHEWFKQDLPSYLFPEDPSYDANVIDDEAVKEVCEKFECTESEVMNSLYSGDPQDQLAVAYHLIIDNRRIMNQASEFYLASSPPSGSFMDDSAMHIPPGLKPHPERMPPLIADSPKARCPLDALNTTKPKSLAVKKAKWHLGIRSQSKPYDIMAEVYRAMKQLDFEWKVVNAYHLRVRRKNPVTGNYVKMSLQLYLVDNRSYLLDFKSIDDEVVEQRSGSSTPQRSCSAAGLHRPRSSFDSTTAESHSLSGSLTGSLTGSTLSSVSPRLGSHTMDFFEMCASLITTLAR
T2 sequence (Q9Y478 whole entry): as the sequence (Q9Y478 whole entry) above
T2 sequence (P54619 whole entry partner): as the sequence (P54619 whole entry partner) above
Method: as §1, §2

Structure (SMILES)	blood glucose reduction (ob/ob and db/db mice)	% Maximum AMP Activation of human AMPK Complex 1 [1]	EC50 [1]	Emax [2]	EC50 [2]
NC(=O)c1ncn([C@@H]2O[C@H](CO)[C@@H](O)[C@H]2O)c1N [AICAR]	35%				
O[C@@H]1CO[C@H]2[C@@H]1OC[C@H]2Oc1nc2c(F)c(-c3ccc(-c4ccccc4)cc3)c(F)cc2[nH]1 [Example 1, (3R,3aR,6R,6aR)-6-((5-([1,1′-biphenyl]-4-yl)-4,6-difluoro-1H-benzo[d]imidazol-2-yl)oxy)hexahydrofuro[3,2-b]furan-3-ol]		636%	51 nM		
CS(=O)(=O)c1ccc(-c2ccc(-c3cc4nc(O[C@@H]5CO[C@H]6[C@@H]5OC[C@H]6O)[nH]c4cc3Cl)cc2)cc1 [Example 6]		367%	14 nM		
O[C@@H]1CO[C@H]2[C@@H]1OC[C@H]2Oc1nc2cc(-c3ccc(-c4ccccc4)cc3)c(Cl)cc2[nH]1 [Example 8]		368%	32 nM		
CC(C)(O)c1ccc(-c2ccc(-c3c(F)cc4[nH]c(O[C@@H]5CO[C@H]6[C@@H]5OC[C@H]6O)nc4c3F)cc2)cc1 [Example 15]		416%	18 nM		
OCc1ccc(-c2ccc(-c3c(F)cc4[nH]c(O[C@H]5COC6C5OC[C@@H]6O)nc4c3F)cc2)cc1 (stereo partly drawn) [Example 18, (3S,6S)-6-((4,6-difluoro-5-(4′-(hydroxymethyl)-[1,1′-biphenyl]-4-yl)-1H-benzo[d]imidazol-2-yl)oxy)hexahydrofuro[3,2-b]furan-3-ol]		314%	6 nM		
O=C(c1ccc(-c2ccc(-c3c(F)cc4[nH]c(O[C@H]5COC6C5OC[C@@H]6O)nc4c3F)cc2)cc1)N1CC[C@@H](O)C1 (stereo partly drawn) [Example 19, (4′-(4,6-difluoro-2-(((3S,6S)-6-hydroxyhexahydrofuro[3,2-b]furan-3-yl)oxy)-1H-benzo[d]imidazol-5-yl)-[1,1′-biphenyl]-4-yl)((R)-3-hydroxypyrrolidin-1-yl)methanone]		232%	35 nM		
O=C(O)C1CC1c1ccc(-c2ccc(-c3c(F)cc4[nH]c(O[C@@H]5CO[C@H]6[C@@H]5OC[C@H]6O)nc4c3F)cc2)cc1 (stereo partly drawn) [Example 26]				350%	5 nM
CC(CO)(CO)c1ccc(-c2ccc(-c3c(F)cc4[nH]c(O[C@@H]5CO[C@H]6[C@@H]5OC[C@H]6O)nc4c3F)cc2)cc1 [Example 33]				316%	5 nM
O[C@@H]1CO[C@H]2[C@@H]1OC[C@H]2Oc1nc2c(F)c(-c3ccc(-c4ccc(C5CNCCO5)cc4)cc3)c(F)cc2[nH]1 (stereo partly drawn) [Example 34]				263%	5 nM
O=C1NCCC1c1ccc(-c2ccc(-c3c(F)cc4[nH]c(O[C@@H]5CO[C@H]6[C@@H]5OC[C@H]6O)nc4c3F)cc2)cc1 (stereo partly drawn) [Example 40]				364%	5 nM
Oc1ccnc(-c2ccc(-c3ccc(-c4c(F)cc5[nH]c(O[C@@H]6CO[C@H]7[C@@H]6OC[C@H]7O)nc5c4F)cc3)cc2)n1 [Example 41]				380%	3 nM
O[C@@H]1CO[C@H]2[C@@H]1OC[C@H]2Oc1nc2c(F)c(-c3ccc(-c4ccc(-n5ccnn5)cc4)cc3)c(F)cc2[nH]1 [Example 43]				341%	3 nM
CNC(=O)c1ccc(-c2ccc(-c3c(F)cc4[nH]c(O[C@@H]5CO[C@H]6[C@@H]5OC[C@H]6O)nc4c3F)cc2)cc1 [Example 46]				364%	2 nM
N=c1nc(N)[nH]n1-c1ccc(-c2ccc(-c3c(F)cc4[nH]c(O[C@@H]5CO[C@H]6[C@@H]5OC[C@H]6O)nc4c3F)cc2)cc1 [Example 47]				348%	4 nM
O=C(O)C1CC1c1ccc(-c2ccc(-c3cc4nc(O[C@@H]5CO[C@H]6[C@@H]5OC[C@H]6O)[nH]c4cc3Cl)cc2)cc1 (stereo partly drawn) [Example 57]				356%	8 nM
O[C@@H]1CO[C@H]2[C@@H]1OC[C@H]2Oc1nc2cc(-c3ccc(-c4ccc(C5CNCCO5)cc4)cc3)c(Cl)cc2[nH]1 (stereo partly drawn) [Example 67]				324%	4 nM
Oc1ccnc(-c2ccc(-c3ccc(-c4cc5nc(O[C@@H]6CO[C@H]7[C@@H]6OC[C@H]7O)[nH]c5cc4Cl)cc3)cc2)n1 [Example 68]				344%	3 nM
O=c1ncn(-c2ccc(-c3ccc(-c4cc5nc(O[C@@H]6CO[C@H]7[C@@H]6OC[C@H]7O)[nH]c5cc4Cl)cc3)cc2)[nH]1 [Example 69]				359%	2 nM
CC(CO)(CO)c1ccc(-c2ccc(-c3cc4nc(O[C@@H]5CO[C@H]6[C@@H]5OC[C@H]6O)[nH]c4cc3Cl)cc2)cc1 [Example 71]				352%	5 nM
O[C@@H]1CO[C@H]2[C@@H]1OC[C@H]2Oc1nc2cc(-c3ccc(-c4ccc(-n5ccnn5)cc4)cc3)c(Cl)cc2[nH]1 [Example 73]				384%	7 nM
O[C@@H]1CO[C@H]2[C@@H]1OC[C@H]2Oc1nc2cc(-c3ccc(-c4ccc(-n5cccn5)cc4)cc3)c(Cl)cc2[nH]1 [Example 74]				369%	16 nM
CNC(=O)c1ccc(-c2ccc(-c3cc4nc(O[C@@H]5CO[C@H]6[C@@H]5OC[C@H]6O)[nH]c4cc3Cl)cc2)cc1 [Example 76]				386%	5 nM
N=c1nc(N)[nH]n1-c1ccc(-c2ccc(-c3cc4nc(O[C@@H]5CO[C@H]6[C@@H]5OC[C@H]6O)[nH]c4cc3Cl)cc2)cc1 [Example 77]				368%	8 nM
O=S(=O)(c1ccc(-c2ccc(-c3cc4nc(O[C@@H]5CO[C@H]6[C@@H]5OC[C@H]6O)[nH]c4cc3Cl)cc2)cc1)C1CCNCC1 [Example 79]				381%	9 nM
O=C1NCCC1c1ccc(-c2ccc(-c3cc4nc(O[C@@H]5CO[C@H]6[C@@H]5OC[C@H]6O)[nH]c4cc3Cl)cc2)cc1 (stereo partly drawn) [Example 83]				365%	5 nM
